Measurements taken from PubChem BioAssay AID200 (DTP/NCI, 2004).
“And” between values parts separate entries of the source, which are not always exact repeats. Equal entries are not always repeated. Inconclusive results and toxic doses are left out.

System: B6C3F1 mice, B16 melanoma ip, median survival T/C
Experiment: NCI In Vivo Anticancer Drug Screen. Data for tumor model B16 Melanoma (intraperitoneal) in B6C3F1 mice
Details: endpoint: median survival time, higher = longer survival
Outline: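 Readout: survival or tumor size in treated mice relative to vehicle controls (T/C). Model uses transplantable tumors grown in mice.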

[1] = dose: 12.5 mg/kg/injection, schedule: Q01DX009 (ip), vehicle: saline with Tween-80
[2] = dose: 25.0 mg/kg/injection, schedule: Q01DX009 (ip), vehicle: saline with Tween-80
[3] = dose: 12.5 mg/kg/injection, schedule: Q01DX009 (ip), vehicle: Klucel (hydroxypropylcellulose) (HPC)
[4] = dose: 1.25 mg/kg/injection, schedule: Q01DX009 (ip), vehicle: Klucel (hydroxypropylcellulose) (HPC)
[5] = dose: 50.0 mg/kg/injection, schedule: Q01DX009 (ip), vehicle: saline with Tween-80
[6] = dose: 100.0 mg/kg/injection, schedule: Q01DX009 (ip), vehicle: saline with Tween-80

**Q.** Which results are given for `O=[N+]([O-])c1ccc(N(CCO)CCO)c2c1no[n+]2[O-]`?
**A.** T/C (dose: 6.25 mg/kg/injection, schedule: Q01DX009 (ip), vehicle: saline with Tween-80): 102 % of control; T/C [1]: 114 % of control; T/C [2]: 102 % of control

**Q.** For `CC[C@H](CC[C@@H](C)[C@H]1CC[C@H]2[C@@H]3CC=C4C[C@@H](OC(C)=O)CC[C@]4(C)[C@H]3CC[C@]12C)C(C)C`, which T/C [3] is on record?
**A.** 95 % of control

**Q.** Which T/C (dose: 1.25 mg/kg/injection, schedule: Q01DX008 (ip), vehicle: Klucel (hydroxypropylcellulose) (HPC)) does the source give for `CC(=O)O[C@H]1C(=O)[C@@]2(C)[C@H]([C@H](OC(=O)c3ccccc3)[C@]3(O)C[C@H](OC(=O)[C@H](O)[C@@H](NC(=O)c4ccccc4)c4ccccc4)C(C)=C1C3(C)C)[C@]1(OC(C)=O)CO[C@@H]1C[C@@H]2O` here?
**A.** 187 % of control

**Q.** What about the T/C [4] of the same compound?
**A.** 155 % of control and 171 % of control

**Q.** And the T/C (dose: 1.88 mg/kg/injection, schedule: Q01DX009 (ip), vehicle: Klucel (hydroxypropylcellulose) (HPC))?
**A.** 213 % of control

**Q.** What about the T/C (dose: 2.5 mg/kg/injection, schedule: Q01DX008 (ip), vehicle: Klucel (hydroxypropylcellulose) (HPC)) of the same compound?
**A.** 221 % of control

**Q.** And the T/C (dose: 3.75 mg/kg/injection, schedule: Q01DX009 (ip), vehicle: Klucel (hydroxypropylcellulose) (HPC))?
**A.** 225 % of control

**Q.** What about the T/C (dose: 5.0 mg/kg/injection, schedule: Q01DX008 (ip), vehicle: Klucel (hydroxypropylcellulose) (HPC)) of the same compound?
**A.** 232 % of control

**Q.** What about the T/C (dose: 6.25 mg/kg/injection, schedule: Q04DX003 (ip), vehicle: Klucel (hydroxypropylcellulose) (HPC)) of the same compound?
**A.** 174 % of control and 186 % of control

**Q.** What about the T/C (dose: 7.5 mg/kg/injection, schedule: Q01DX009 (ip), vehicle: Klucel (hydroxypropylcellulose) (HPC)) of the same compound?
**A.** 327 % of control

**Q.** What about the T/C (dose: 10.0 mg/kg/injection, schedule: Q01DX008 (ip), vehicle: Klucel (hydroxypropylcellulose) (HPC)) of the same compound?
**A.** 112 % of control

**Q.** And the T/C (dose: 10.0 mg/kg/injection, schedule: Q01DX009 (ip), vehicle: other)?
**A.** 154 % of control and 175 % of control

**Q.** What about the T/C (dose: 12.5 mg/kg/injection, schedule: Q04DX003 (ip), vehicle: Klucel (hydroxypropylcellulose) (HPC)) of the same compound?
**A.** 201 % of control and 231 % of control

**Q.** What about the T/C (dose: 20.0 mg/kg/injection, schedule: Q01DX008 (ip), vehicle: Klucel (hydroxypropylcellulose) (HPC)) of the same compound?
**A.** 92 % of control

**Q.** What about the T/C (dose: 25.0 mg/kg/injection, schedule: Q04DX003 (ip), vehicle: Klucel (hydroxypropylcellulose) (HPC)) of the same compound?
**A.** 237 % of control and 254 % of control

**Q.** What about the T/C (dose: 30.0 mg/kg/injection, schedule: Q01DX009 (ip), vehicle: Klucel (hydroxypropylcellulose) (HPC)) of the same compound?
**A.** 89 % of control

**Q.** And the T/C (dose: 50.0 mg/kg/injection, schedule: Q04DX003 (ip), vehicle: Klucel (hydroxypropylcellulose) (HPC))?
**A.** 169 % of control and 222 % of control

**Q.** And the T/C (dose: 100.0 mg/kg/injection, schedule: Q04DX003 (ip), vehicle: Klucel (hydroxypropylcellulose) (HPC))?
**A.** 118 % of control

**Q.** How did the T/C (dose: 1.25 mg/kg/injection, schedule: Q01DX009 (ip), vehicle: saline with Tween-80) turn out when `COC1=CC(=O)c2c(O)cc(OC)c(O)c2C1=O` was run?
**A.** 105 % of control

**Q.** And the T/C (dose: 2.5 mg/kg/injection, schedule: Q01DX009 (ip), vehicle: saline with Tween-80)?
**A.** 121 % of control

**Q.** And the T/C (dose: 5.0 mg/kg/injection, schedule: Q01DX009 (ip), vehicle: saline with Tween-80)?
**A.** 121 % of control

**Q.** And the T/C (dose: 10.0 mg/kg/injection, schedule: Q01DX009 (ip), vehicle: saline with Tween-80)?
**A.** 121 % of control

**Q.** `CC1=CCC[C@@H]2C1(C)CCC(C)[C@@]2(C)CC1=CC(=O)C=CC1=O` (stereo partly specified) was tested. Which T/C (dose: 0.75 mg/kg/injection, schedule: Q01DX009 (ip), vehicle: Klucel (hydroxypropylcellulose) (HPC)) did it give?
**A.** 93 % of control

**Q.** What about the T/C [4] of the same compound?
**A.** 95 % of control

**Q.** Which T/C (dose: 12.5 mg/kg/injection, schedule: Q01DX009 (ip), vehicle: distilled water + Tween-80) does the source give for `CC(=S)NC(O)C(=O)c1ccccc1` (stereo unspecified) here?
**A.** 104 % of control

**Q.** And the T/C [1]?
**A.** 95 % of control

**Q.** What about the T/C (dose: 25.0 mg/kg/injection, schedule: Q01DX009 (ip), vehicle: distilled water + Tween-80) of the same compound?
**A.** 107 % of control

**Q.** And the T/C [2]?
**A.** 94 % of control

**Q.** What about the T/C (dose: 50.0 mg/kg/injection, schedule: Q01DX009 (ip), vehicle: distilled water + Tween-80) of the same compound?
**A.** 98 % of control

**Q.** And the T/C [5]?
**A.** 93 % of control

**Q.** And the T/C (dose: 100.0 mg/kg/injection, schedule: Q01DX009 (ip), vehicle: distilled water + Tween-80)?
**A.** 113 % of control

**Q.** What about the T/C [6] of the same compound?
**A.** 93 % of control

**Q.** And the T/C (dose: 200.0 mg/kg/injection, schedule: Q01DX009 (ip), vehicle: saline with Tween-80)?
**A.** 89 % of control

**Q.** What does the source list for `O=NN(CCCl)C(=O)NC1[C@H](O)CCC[C@@H]1O` (stereo partly specified)?
**A.** T/C (dose: 0.62 mg/kg/injection, schedule: Q01DX009 (ip), vehicle: saline): 159 % of control; T/C (dose: 1.25 mg/kg/injection, schedule: Q01DX009 (ip), vehicle: saline): 225 % of control; T/C (dose: 2.5 mg/kg/injection, schedule: Q01DX009 (ip), vehicle: saline): 251 % of control; T/C (dose: 5.0 mg/kg/injection, schedule: Q01DX009 (ip), vehicle: saline): 190 % of control

**Q.** What does the source list for `COC1=C2C[C@@H](C)C[C@@H](OC)[C@@H](O)[C@H](C)/C=C(\C)[C@@H](OC(N)=O)[C@H](OC)/C=C\C=C(/C)C(=O)NC(=CC1=O)C2=O`?
**A.** T/C (dose: 0.12 mg/kg/injection, schedule: Q01DX009 (ip), vehicle: saline with Tween-80): 103 % of control and 106 % of control; T/C (dose: 0.13 mg/kg/injection, schedule: Q01DX009 (ip), vehicle: saline with Tween-80): 105 % of control; T/C (dose: 0.25 mg/kg/injection, schedule: Q01DX009 (ip), vehicle: saline with Tween-80): 108 % of control and 118 % of control; T/C (dose: 0.5 mg/kg/injection, schedule: Q01DX009 (ip), vehicle: saline with Tween-80): 122 % of control and 102 % of control and 105 % of control; T/C (dose: 1.0 mg/kg/injection, schedule: Q01DX009 (ip), vehicle: saline with Tween-80): 109 % of control and 102 % of control; T/C (dose: 2.0 mg/kg/injection, schedule: Q01DX009 (ip), vehicle: saline with Tween-80): 123 % of control and 106 % of control

**Q.** `CSc1cc(C)[o+]c(C)c1` was tested. Which T/C [3] did it give?
**A.** 106 % of control

**Q.** What about the T/C (dose: 25.0 mg/kg/injection, schedule: Q01DX009 (ip), vehicle: Klucel (hydroxypropylcellulose) (HPC)) of the same compound?
**A.** 105 % of control

**Q.** And the T/C (dose: 50.0 mg/kg/injection, schedule: Q01DX009 (ip), vehicle: Klucel (hydroxypropylcellulose) (HPC))?
**A.** 106 % of control

**Q.** What about the T/C (dose: 100.0 mg/kg/injection, schedule: Q01DX009 (ip), vehicle: Klucel (hydroxypropylcellulose) (HPC)) of the same compound?
**A.** 109 % of control

**Q.** What about the T/C (dose: 200.0 mg/kg/injection, schedule: Q01DX009 (ip), vehicle: Klucel (hydroxypropylcellulose) (HPC)) of the same compound?
**A.** 101 % of control

**Q.** `CC(=O)c1ccc(C)cc1C` was tested. Which T/C [2] did it give?
**A.** 105 % of control

**Q.** What about the T/C [5] of the same compound?
**A.** 92 % of control

**Q.** What about the T/C [6] of the same compound?
**A.** 98 % of control

**Q.** With `COC(=O)NC1C(C)OC(OC2C/C=C(/C)C3C=CC4C(OC5CC(OC6CC(OC7CC(O)C(O)C(C)O7)C(OC7CC(O)C(OC)C(C)O7)C(C)O6)C(O)C(C)O5)C(C)CC(C)C4C3(C)/C(O)=C3\C(=O)OC4(CC(C)C(CO)=CC4/C=C\2C)C3=O)CC1(C)[N+](=O)[O-]` (stereo unspecified) as the compound, how does the T/C (dose: 6.25 mg/kg/injection, schedule: Q01DX009 (ip), vehicle: water) read?
**A.** 117 % of control and 100 % of control

**Q.** What about the T/C (dose: 12.5 mg/kg/injection, schedule: Q01DX009 (ip), vehicle: water) of the same compound?
**A.** 108 % of control and 122 % of control

**Q.** What about the T/C (dose: 12.5 mg/kg/injection, schedule: Q01DX009 (sc), vehicle: water) of the same compound?
**A.** 92 % of control

**Q.** And the T/C (dose: 25.0 mg/kg/injection, schedule: Q01DX009 (ip), vehicle: water)?
**A.** 116 % of control

**Q.** What about the T/C (dose: 25.0 mg/kg/injection, schedule: Q01DX009 (sc), vehicle: water) of the same compound?
**A.** 91 % of control

**Q.** What about the T/C (dose: 50.0 mg/kg/injection, schedule: Q01DX009 (sc), vehicle: water) of the same compound?
**A.** 113 % of control

**Q.** And the T/C (dose: 100.0 mg/kg/injection, schedule: Q01DX009 (sc), vehicle: water)?
**A.** 89 % of control

**Q.** And the T/C (dose: 200.0 mg/kg/injection, schedule: Q01DX009 (sc), vehicle: water)?
**A.** 98 % of control

**Q.** For `COc1cc2c(c(OC)c1OC)-c1c(cc3c(c1OC)OCO3)CC(C)C(C)(O)C2OC(=O)c1ccccc1` (stereo unspecified), which T/C (dose: 25.0 mg/kg/injection, schedule: Q01DX009 (ip), vehicle: saline + Tween-80 + alcohol) is on record?
**A.** 107 % of control

**Q.** And the T/C (dose: 50.0 mg/kg/injection, schedule: Q01DX009 (ip), vehicle: saline + Tween-80 + alcohol)?
**A.** 98 % of control

**Q.** What about the T/C (dose: 100.0 mg/kg/injection, schedule: Q01DX009 (ip), vehicle: saline + Tween-80 + alcohol) of the same compound?
**A.** 115 % of control

**Q.** And the T/C (dose: 200.0 mg/kg/injection, schedule: Q01DX009 (ip), vehicle: saline + Tween-80 + alcohol)?
**A.** 110 % of control

**Q.** Which results are given for `O=c1[nH]cnc2c1ccn2C1OC(CO)C(O)C1O` (stereo unspecified)?
**A.** T/C (dose: 0.37 mg/kg/injection, schedule: Q01DX009 (ip), vehicle: saline): 106 % of control; T/C (dose: 0.75 mg/kg/injection, schedule: Q01DX009 (ip), vehicle: saline): 99 % of control; T/C (dose: 1.5 mg/kg/injection, schedule: Q01DX009 (ip), vehicle: saline): 106 % of control; T/C (dose: 3.0 mg/kg/injection, schedule: Q01DX009 (ip), vehicle: saline): 113 % of control; T/C (dose: 6.0 mg/kg/injection, schedule: Q01DX009 (ip), vehicle: saline): 115 % of control; T/C (dose: 12.0 mg/kg/injection, schedule: Q01DX009 (ip), vehicle: saline): 105 % of control
